Laboratory results as given in patent US20260256923A1, “NEW RECRUITMENT ELEMENT OF UBIQUITIN LIGASE AND USE THEREOF” (SHENZHEN LINGGENE BIOTECH CO., LTD., priority 2023, published 2026).

Assays:
MDM2 [1] = molecular target: T1, MDM2 (Homo sapiens, UniProt P19338+Q00987); test: MDM2 protein degradation in A549 non-small cell lung cancer cells, western blot; format: cell-based; conditions: A549, 200 nM, 3 h
T1 construct: endogenous in cells; host or cells: A549
Procedure: (1) A549 non-small cell lung cancer cells were incubated with 200 nM AS1411-VH032, and corresponding cell samples were collected at time gradients of 0 h, 3 h, 6 h, 9 h, 12 h, and 24 h for protein extraction and subsequent western blot assay to detect protein degradation.
(2) A549 non-small cell lung cancer cells were incubated with AS1411-VH032 at concentrations of 0 nM, 50 nM, 100 nM, 150 nM, 200 nM, and 250 nM. After 3 h, cell samples were collected for protein extraction and subsequent western blot assay to detect protein degradation.
(3) A549 non-small cell lung cancer cells were incubated with 200 nM AS1411, VH032, AS1411-VH032, or AS1411+VH032. After 3 h, cell samples were collected for protein extraction and subsequent western blot assay to detect protein degradation.
(4) A549 non-small cell lung cancer cells were incubated with 200 nM AS1411-VH032 for 3 h, and proteasome inhibitor MG132 was added. Cell samples were collected for protein extraction and subsequent western blot assay.
(5) A549 non-small cell lung cancer cells were transfected with si-NC or si-NCL and subsequently incubated with 200 nM AS1411-VH032 for 3 h. Cell samples were collected for protein extraction and subsequent western blot assay.
(1) A549 non-small cell lung cancer cells were incubated with 1000 nM AS1411-AS1411, and corresponding cell samples were collected at time gradients of 0 h, 3 h, 6 h, 9 h, 12 h, and 24 h for protein extraction and subsequent western blot assay to detect protein degradation.
(2) A549 non-small cell lung cancer cells were incubated with AS1411-AS1411 at concentrations of 0 nM, 50 nM, 100 nM, 250 nM, 500 nM, and 1000 nM. After 12 h, cell samples were collected for protein extraction and subsequent western blot assay to detect protein degradation.
(3) A549 non-small cell lung cancer cells were incubated with 1000 nM AS1411, AS1411-AS1411, or AS1411+AS1411. After 12 h, cell samples were collected for protein extraction and subsequent western blot assay to detect protein degradation. […]

NCL [2] = molecular target: T2, NCL (Homo sapiens, UniProt P19338); test: Biotin-oligonucleotide pull-down with recombinant proteins (NCL); format: binding; parameters: purchased ACROBiosystems (NCL); R&D Systems (MDM2) NUL-H5253 (NCL); E3-202-050 (MDM2); conditions: 400 nM 5′-biotin label, 6 μg/mL NCL + 6 μg/mL MDM2
Procedure: (§1) 6 μg/mL recombinant human NCL and 6 μg/mL recombinant human MDM2 were mixed well and incubated at 4° C. for 7 h. Subsequently, 400 nM CRO, AS1411, or iSN04 labeled by biotin at the 5′ end was added, and the mixture was incubated at 4° C. for 6 h. Streptavidin agarose gel beads (purchased from cytiva, Cat. No.: 17511301) were added, and the mixture was further incubated at 4° C. overnight. The gel beads were washed 4 times with a TBST buffer, and an SDS-PAGE protein loading buffer (purchased from Beyotime, Cat. No.: P0015) was added. The mixture was heated to 100° C. and held for 10 min. After centrifugation, the supernatant was collected. The pull-down product was then detected by western blot assay.

MDM2 [3] = molecular target: T3, MDM2 (Homo sapiens, UniProt Q00987); test: Biotin-oligonucleotide pull-down with recombinant proteins (MDM2); format: binding; parameters: purchased R&D Systems (MDM2); ACROBiosystems (NCL) E3-202-050 (MDM2); NUL-H5253 (NCL); conditions: 400 nM 5′-biotin label, 6 μg/mL NCL + 6 μg/mL MDM2
Procedure: as §1
Target sequence in this assay (P19338 whole entry partner): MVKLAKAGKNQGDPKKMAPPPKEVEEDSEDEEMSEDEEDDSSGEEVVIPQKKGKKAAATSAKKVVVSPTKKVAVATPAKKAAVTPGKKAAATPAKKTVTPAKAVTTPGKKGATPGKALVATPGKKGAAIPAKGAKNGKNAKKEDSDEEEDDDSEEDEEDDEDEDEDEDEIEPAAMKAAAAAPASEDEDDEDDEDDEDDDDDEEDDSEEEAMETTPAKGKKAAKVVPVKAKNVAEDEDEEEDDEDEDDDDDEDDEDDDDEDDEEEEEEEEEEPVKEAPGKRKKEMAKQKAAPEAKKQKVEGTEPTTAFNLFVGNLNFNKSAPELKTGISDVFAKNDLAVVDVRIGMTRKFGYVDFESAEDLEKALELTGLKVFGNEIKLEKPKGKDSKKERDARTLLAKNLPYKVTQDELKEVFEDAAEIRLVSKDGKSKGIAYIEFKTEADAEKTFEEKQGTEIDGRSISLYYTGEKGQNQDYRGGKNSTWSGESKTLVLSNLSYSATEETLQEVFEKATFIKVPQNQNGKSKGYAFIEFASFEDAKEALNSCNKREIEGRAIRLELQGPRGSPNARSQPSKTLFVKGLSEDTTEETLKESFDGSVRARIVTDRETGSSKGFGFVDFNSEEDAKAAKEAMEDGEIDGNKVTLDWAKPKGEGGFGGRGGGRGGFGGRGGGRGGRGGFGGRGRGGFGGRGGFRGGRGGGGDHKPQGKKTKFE
Target sequence in this assay (Q00987 whole entry): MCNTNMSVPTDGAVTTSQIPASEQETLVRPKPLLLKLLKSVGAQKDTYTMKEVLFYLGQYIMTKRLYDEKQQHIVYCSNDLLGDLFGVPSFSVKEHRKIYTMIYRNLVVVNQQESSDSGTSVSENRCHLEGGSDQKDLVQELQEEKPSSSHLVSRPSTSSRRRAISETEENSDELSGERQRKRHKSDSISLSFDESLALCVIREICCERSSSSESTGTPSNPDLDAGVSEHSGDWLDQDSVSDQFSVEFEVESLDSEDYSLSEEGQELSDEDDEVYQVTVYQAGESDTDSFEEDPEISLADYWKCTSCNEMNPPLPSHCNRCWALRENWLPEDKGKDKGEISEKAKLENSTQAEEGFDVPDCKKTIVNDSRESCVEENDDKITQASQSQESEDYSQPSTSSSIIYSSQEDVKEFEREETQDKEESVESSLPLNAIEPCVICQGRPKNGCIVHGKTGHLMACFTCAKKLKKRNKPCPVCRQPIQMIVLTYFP

MDM2 [4] = molecular target: T3, MDM2; test: Biotin-oligonucleotide pull-down from HeLa cell lysate, western blot (MDM2); format: binding; parameters: HeLa cervical cancer cells were lysed with an IP lysis solution; endogenous in cells; host or cells: HeLa; conditions: 5′-biotin label, 0 nM-20 μM
Procedure: (§2) HeLa cervical cancer cells were lysed with an IP lysis solution (purchased from Thermo Scientific, Cat. No.: 87788) and then incubated with a CRO (cytosine-rich oligonucleotide, negative control, SEQ ID NO: 13), AS1411, or iSN04 labeled by biotin at the 5′ end at different concentrations (0 nM, 200 nM, 500 nM, 1 μM, 5 μM, 10 μM, and 20 μM) at 4° C. for 6h. Subsequently, streptavidin agarose gel beads (purchased from cytiva, Cat. No.: 17511301) were added, and the mixture was further incubated at 4° C. overnight. After the bound biotin-labeled CRO, AS411, or iSN04 and its captured proteins on the gel beads were washed multiple times with an IP lysis buffer (purchased from Thermo Scientific, Cat. No.: 87788), an SDS-PAGE protein loading buffer (purchased from Beyotime, Cat. No.: P0015) was added, and the mixture was heated to 100° C. and held for 10 min. After centrifugation, the supernatant was collected as a pull-down product. The pull-down product was detected by western blot assay.
Target sequence in this assay (P19338 2-710 partner limits assumed): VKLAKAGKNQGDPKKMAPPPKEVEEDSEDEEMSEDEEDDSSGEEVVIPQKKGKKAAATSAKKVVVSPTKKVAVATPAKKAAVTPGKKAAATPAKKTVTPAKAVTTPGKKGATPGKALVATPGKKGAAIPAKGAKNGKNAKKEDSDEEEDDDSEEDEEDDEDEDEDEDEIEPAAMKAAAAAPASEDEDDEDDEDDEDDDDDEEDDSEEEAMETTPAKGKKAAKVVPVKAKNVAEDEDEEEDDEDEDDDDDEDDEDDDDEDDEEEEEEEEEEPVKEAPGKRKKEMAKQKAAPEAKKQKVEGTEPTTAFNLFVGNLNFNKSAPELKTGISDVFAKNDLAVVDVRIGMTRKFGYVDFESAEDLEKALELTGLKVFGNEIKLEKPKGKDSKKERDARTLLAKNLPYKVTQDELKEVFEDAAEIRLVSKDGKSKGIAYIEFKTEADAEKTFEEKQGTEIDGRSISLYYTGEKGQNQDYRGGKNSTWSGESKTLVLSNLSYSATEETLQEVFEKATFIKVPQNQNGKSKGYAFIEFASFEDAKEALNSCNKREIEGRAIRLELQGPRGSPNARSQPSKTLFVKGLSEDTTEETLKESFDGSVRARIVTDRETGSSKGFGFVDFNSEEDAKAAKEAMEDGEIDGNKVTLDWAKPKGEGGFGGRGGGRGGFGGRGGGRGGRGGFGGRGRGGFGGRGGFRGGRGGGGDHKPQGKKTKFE
Target sequence in this assay (Q00987 whole entry): as the sequence (Q00987 whole entry) above

NCL [5] = molecular target: T2, NCL; test: Biotin-oligonucleotide pull-down from HeLa cell lysate, western blot (NCL); format: binding; parameters: HeLa cervical cancer cells were lysed with an IP lysis solution; endogenous in cells; host or cells: HeLa cell lysate; conditions: 5′-biotin label, 0 nM-20 μM
Procedure: as §2

T2 sequence (P19338 whole entry): as the sequence (P19338 whole entry partner) above
T1 sequence (Q00987 whole entry): as the sequence (Q00987 whole entry) above
T1 sequence (P19338 2-710 limits assumed): as the sequence (P19338 2-710 partner limits assumed) above

Compound	protein level of MDM2 (MDM2 [1])	binding to NCL (NCL [2])	binding / recruitment of MDM2 (MDM2 [3])	capture of MDM2 (MDM2 [4])	capture of NCL (NCL [5])
CC(=O)N[C@H](C(=O)N1C[C@H](O)C[C@H]1C(=O)NCc1ccc(-c2scnc2C)cc1)C(C)(C)C [VH032]	neither AS1411, VH032, nor AS1411+VH032 can reduce the protein level of MDM2	–	–	–	–
CRO: cytosine-rich oligonucleotide, negative control, SEQ ID NO: 13 (DNA CCTCCTCCTCCTTCTCCTCCTCCTCC; DNA, backbone and methylation of C not given here; further chemistry not fully specified)	–	cannot bind to either NCL or MDM2	cannot bind to either NCL or MDM2	cannot capture either NCL or MDM2	cannot capture either NCL or MDM2
